Laboratory results published in US20240400555A1 (Initial Therapeutics, Inc., priority 2023, published 2024).

Tested on: HCT-116 Firefly-luciferase reporter cells
Experiment: Cellular c-MYC Reporter Assay
Type: cell-based
Details: Homo sapiens; untitled table following Table 8a; HCT-116 Firefly-luciferase reporter cells, 24 h; read-out: pIC50 (converted)
Procedure, shortened: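 Compound exposure lasted 24 h at 37 °C, 5% CO2, in complete McCoy's 5A medium containing 0.2% DMSO, beginning 4–6 h post-seeding (5e4 cells/mL). Firefly luciferase signal measured by luminescence after 10 min ONE-Glo development at room temperature.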

In the case of `Cc1cccc2ccnc(N(C(=O)c3ccc(N4CC(C)NC4=O)cc3F)[C@@H]3CCCNC3)c12` (stereo partly drawn) [Example 172, 2-fluoro-4-(4-methyl-2-oxoimidazolidin-1-yl)-N-(8-methylisoquinolin-1-yl)-N—((R)-piperidin-3-yl)benzamide], the IC50 is reported as 6.03 µM.

`Cc1cccc2ccnc(N(C(=O)N3CCC(c4nn(C)c(=O)o4)CC3)[C@@H]3CCCNC3)c12` [Example 174, (R)-4-(4-methyl-5-oxo-4,5-dihydro-1,3,4-oxadiazol-2-yl)-N-(8 methylisoquinolin-1-yl)-N-(piperidin-3-yl)piperidine-1-carboxamide] gave an IC50 of 3.55 µM.

`Cc1cccc2ccnc(N(C(=O)c3ccc(-n4nnc5cccnc54)cc3F)[C@H]3CNCC(F)(F)C3)c12` [Example 175, (R)-4-(3H-[1,2,3]triazolo[4,5-b]pyridin-3-yl)-N-(5,5-difluoropiperidin-3-yl)-2-fluoro-N-(8-methylisoquinolin-1-yl)benzamide] showed an IC50 of 9.33 µM.

For `O=C(c1ccc(-n2nnc3cccnc32)cc1F)N(c1ncccc1-c1cn[nH]c1)[C@@H]1CCCNC1` [Example 176, (R)—N-(3-(1H-pyrazol-4-yl)pyridin-2-yl)-4-(3H-[1,2,3]triazolo[4,5-b]pyridin-3-yl)-2-fluoro-N-(piperidin-3-yl)benzamide], the IC50 was 0.933 µM.

Work on `O=C(c1ccc(-n2nnc3cccnc32)cc1F)N(c1ncccc1-c1ccsc1)[C@@H]1CCCNC1` [Example 177, (R)-4-(3H-[1,2,3]triazolo[4,5-b]pyridin-3-yl)-2-fluoro-N-(piperidin-3-yl)-N-(3-(thiophen-3-yl)pyridin-2-yl)benzamide] yielded an IC50 of 0.355 µM.

In the case of `Cc1nnn(-c2ccc(C(=O)N(c3nccc4cccc(C)c34)[C@@H]3CCCNC3)cc2)n1` [Example 179, (R)-4-(5-methyl-2H-tetrazol-2-yl)-N-(8-methylisoquinolin-1-yl)-N-(piperidin-3-yl)benzamide], the IC50 is reported as 0.0724 µM.

Work on `Cc1ccnc(N(C)c2ccc(C(=O)N(c3nccc4cccc(C)c34)[C@@H]3CCCNC3)c(F)c2)n1` [Example 180, (R)-2-fluoro-4-(methyl (4-methylpyrimidin-2-yl)amino)-N-(8-methylisoquinolin-1-yl)-N-(piperidin-3-yl)benzamide] yielded an IC50 of 3.39 µM.

Work on `Cc1cc(C2CCN(C(=O)N(c3nccc4cccc(C)c34)[C@@H]3CCCCNC3)CC2)on1` [Example 181, (R)—N-(azepan-3-yl)-N-(8-methylisoquinolin-1-yl)-4-(3-methylisoxazol-5-yl)piperidine-1-carboxamide] yielded an IC50 of 11 µM.

In the case of `Cc1nccnc1-c1ccc(C(=O)N(c2nccc3cccc(Cl)c23)[C@@H]2CCCNC2)c(F)c1` [Example 182, (R)—N-(8-chloroisoquinolin-1-yl)-2-fluoro-4-(3-methylpyrazin-2-yl)-N-(piperidin-3-yl)benzamide], the IC50 is reported as 0.891 µM.

`Cc1cccc2ccnc(N(C(=O)c3ccc(Nc4ncccn4)cn3)[C@@H]3CCCNC3)c12` [Example 184, (R)—N-(8-methylisoquinolin-1-yl)-N-(piperidin-3-yl)-5-(pyrimidin-2-ylamino) picolinamide] gave an IC50 of 1.55 µM.

`Cc1cccc2ccnc(N(C(=O)c3ccc(Nc4ncccn4)cc3F)[C@@H]3CCCCNC3)c12` [Example 185, (R)—N-(azepan-3-yl)-2-fluoro-N-(8-methylisoquinolin-1-yl)-4-(pyrimidin-2-ylamino)benzamide] gave an IC50 of 3.31 µM.

Compound `Cc1cnc(Nc2ccc(C(=O)N(c3nccc4cccc(C)c34)[C@@H]3CCCNC3)c(F)c2)nc1` [Example 186, (R)-2-fluoro-N-(8-methylisoquinolin-1-yl)-4-((5-methylpyrimidin-2-yl)amino)-N-(piperidin-3-yl)benzamide] has an IC50 of 0.2 µM.

In the case of `COc1ccc2nnn(-c3ccc(C(=O)N(c4nccc5cccc(C)c45)[C@@H]4CCCNC4)c(F)c3)c2n1` [Example 187, (R)-2-fluoro-4-(5-methoxy-3H-[1,2,3]triazolo[4,5-b]pyridin-3-yl)-N-(8-methylisoquinolin-1-yl)-N-(piperidin-3-yl)benzamide], the IC50 is reported as 0.0501 µM.

`Cc1cccc2ccnc(N(C(=O)N3CCC(Oc4ccccc4)CC3)[C@@H]3CCCNC3)c12` [Example 189, (R)—N-(8-methylisoquinolin-1-yl)-4-phenoxy-N-(piperidin-3-yl)-1-carboxamide] gave an IC50 of 5.62 µM.

Compound `CC1(c2ccno2)CCN(C(=O)N(c2cc3ccccc3cn2)[C@@H]2CCCNC2)CC1` [Example 190, (R)—N-(isoquinolin-3-yl)-4-(isoxazol-5-yl)-4-methyl-N-(piperidin-3-yl)piperidine-1-carboxamide] has an IC50 of 5.89 µM.

`Cc1cccc2ccnc(N(C(=O)c3ccc(-n4nnc5ccc(C#N)nc54)cc3F)[C@@H]3CCCNC3)c12` [Example 191, (R)-4-(5-cyano-3H-[1,2,3]triazolo[4,5-b]pyridin-3-yl)-2-fluoro-N-(8-methylisoquinolin-1-yl)-N-(piperidin-3-yl)benzamide] gave an IC50 of 0.0107 µM.

In the case of `Cc1cccc2ccnc(N(C(=O)c3ccc(-n4nnc5ccc(Cl)nc54)cc3F)[C@@H]3CCCNC3)c12` [Example 192, (R)-4-(5-chloro-3H-[1,2,3]triazolo[4,5-b]pyridin-3-yl)-2-fluoro-N-(8-methylisoquinolin-1-yl)-N-(piperidin-3-yl)benzamide], the IC50 is reported as 0.17 µM.

Compound `Cc1cccc2ccnc(N(C(=O)c3ccc(-c4cn(C)nn4)cc3F)[C@@H]3CCCNC3)c12` [Example 193, (R)-2-fluoro-4-(1-methyl-1H-1,2,3-triazol-4-yl)-N-(8-methylisoquinolin-1-yl)-N-(piperidin-3-yl)benzamide] has an IC50 of 0.0794 µM.

`Cc1cccc2ccnc(N(C(=O)c3ccc(-n4nccn4)cc3F)[C@@H]3CCCNC3)c12` [Example 194, (R)-2-fluoro-N-(8-methylisoquinolin-1-yl)-N-(piperidin-3-yl)-4-(2H-1,2,3-triazol-2-yl)benzamide] showed an IC50 of 1.2 µM.

`Cc1nnn(-c2ccc(C(=O)N(c3nccc4cccc(C)c34)[C@@H]3CCCNC3)c(F)c2)n1` [Example 195, (R)-2-fluoro-4-(5-methyl-2H-tetrazol-2-yl)-N-(8-methylisoquinolin-1-yl)-N-(piperidin-3-yl) benzamide] showed an IC50 of 0.0871 µM.

Compound `Cc1cccc2ccnc(N(C(=O)c3ccc(-c4onc5ccccc45)cc3F)[C@@H]3CCCNC3)c12` [Example 196, (R)-4-(benzo[c]isoxazol-3-yl)-2-fluoro-N-(8-methylisoquinolin-1-yl)-N-(piperidin-3-yl)benzamide] has an IC50 of over 20 µM.

For `Cc1cccc2ccnc(N(C(=O)c3ccc(-c4cncc(C#N)n4)cc3F)[C@@H]3CCCNC3)c12` [Example 198, (R)-2-fluoro-N-(8-methylisoquinolin-1-yl)-4-(6-cyanopyrazin-2-yl)-N-(piperidin-3-yl)benzamide], the IC50 was 0.617 µM.

With `Cc1cc(C2CCN(C(=O)N(c3nccc4cccc(C)c34)[C@@H]3CCCNC3)CC2)ccn1` [Example 199, (R)—N-(8-methylisoquinolin-1-yl)-4-(2-methylpyridin-4-yl)-N-(piperidin-3-yl)piperidine-1-carboxamide] the IC50 was 0.263 µM.

`O=C(c1ncc(-n2nnc3cccnc32)cc1F)N(c1nccc2cccc(Cl)c12)[C@@H]1CCCNC1` [Example 200, (R)-5-(3H-[1,2,3]triazolo[4,5-b]pyridin-3-yl)-N-(8-chloroisoquinolin-1-yl)-3-fluoro-N-(piperidin-3-yl)picolinamide] showed an IC50 of 0.0776 µM.

Work on `Cc1cccc2ccnc(N(C(=O)c3ncc(-n4nnc5cccnc54)cc3F)[C@@H]3CCCNC3)c12` [Example 201, (R)-5-(3H-[1,2,3]triazolo[4,5-b]pyridin-3-yl)-3-fluoro-N-(8-methylisoquinolin-1-yl)-N-(piperidin-3-yl)picolinamide] yielded an IC50 of 0.148 µM.

With `Cc1cncc(-c2ccc(C(=O)N(c3nccc4cccc(C)c34)[C@@H]3CCCNC3)c(F)c2)n1` [Example 202, (R)-2-fluoro-N-(8-methylisoquinolin-1-yl)-4-(6-methylpyrazin-2-yl)-N-(piperidin-3-yl)benzamide] the IC50 was 0.372 µM.

Work on `Cc1nccnc1-c1ccc(C(=O)N(c2nccc3cccc(C)c23)[C@@H]2CCCNC2)c(F)c1` [Example 203, (R)-2-fluoro-N-(8-methylisoquinolin-1-yl)-4-(3-methylpyrazin-2-yl)-N-(piperidin-3-yl)benzamide] yielded an IC50 of 0.129 µM.

Work on `Cc1cccc2ccnc(N(C(=O)c3ccc(-c4cnccn4)cc3F)[C@@H]3CCCNC3)c12` [Example 204, (R)-2-fluoro-N-(8-methylisoquinolin-1-yl)-N-(piperidin-3-yl)-4-(pyrazin-2-yl)benzamide] yielded an IC50 of 0.479 µM.

Compound `Cc1cccc2ccnc(N(C(=O)c3ccc(-n4nnc5ccc(C(F)(F)F)nc54)cc3F)[C@@H]3CCCNC3)c12` [Example 205, (R)-2-fluoro-N-(8-methylisoquinolin-1-yl)-N-(piperidin-3-yl)-4-(5-(trifluoromethyl)-3H-[1,2,3]triazolo[4,5-b]pyridin-3-yl)benzamide] has an IC50 of 0.17 µM.

`Cc1cccc2ccnc(N(C(=O)N3CCC(Nc4ncccn4)CC3)[C@@H]3CCCNC3)c12` [Example 208, (R)—N-(8-methylisoquinolin-1-yl)-N-(piperidin-3-yl)-4-(pyrimidin-2-ylamino)piperidine-1-carboxamide] gave an IC50 of 3.55 µM.

`Cc1ccc2nnn(-c3ccc(C(=O)N(c4nccc5ccn(C)c45)[C@@H]4CCCNC4)c(F)c3)c2n1` [Example 209, (R)-2-fluoro-N-(1-methyl-1H-pyrrolo[2,3-c]pyridin-7-yl)-4-(5-methyl-3H-[1,2,3]triazolo[4,5-b]pyridin-3-yl)-N-(piperidin-3-yl)benzamide] was tested, and the IC50 was 0.141 µM.

`Cc1cccc2ccnc(N(C(=O)c3ccc(Nc4ncccn4)cc3F)[C@@H]3CCCNC3)c12` [Example 210, (R)-2-fluoro-N-(8-methylisoquinolin-1-yl)-N-(piperidin-3-yl)-4-(pyrimidin-2-ylamino)benzamide] showed an IC50 of 0.275 µM.

Compound `Cc1cc(-c2ccc(C(=O)N(c3nccc4ccn(C)c34)[C@@H]3CCCNC3)c(F)c2)on1` [Example 212, (R)-2-fluoro-N-(1-methyl-1H-pyrrolo[2,3-c]pyridin-7-yl)-4-(3-methylisoxazol-5-yl)-N-(piperidin-3-yl)benzamide] has an IC50 of 0.355 µM.
